Here are results for 26 compounds from patent publication US5089623A, “Certain imidate insecticides” (Imperial Chemical Industries Plc, priority 1990, dated 1992).

Assay type in all cases: in vivo
The subject of assay [1] is Cabbage Looper [Trichoplusia ni (Hubner)]. Nature of the assay: Cabbage looper test (CL). As to conditions: second-instar larvae, 3-5 days, percent in solution.
The subject of assay [2] is Housefly [Musca domestica]. Put plainly: Housefly insecticidal test (HF). As to conditions: per 25 female houseflies, 48 hours.
Assay [3] has as its system Maize weevil [Sitophilus Zeamais (Motschulsky)]. Nature of the assay: Maize weevil test (MW). As to conditions: adult weevils, treated corn seeds, 48 hours, percent in solution. As for the experimental part:
The compounds in Tables 1 and 2 above were tested for insecticidal activity using the following testing procedures. LC50 values, based on the results of these tests and calculated according to dosage-mortality curves, are expressed in Table 3.
Maize weevil [Sitophilus Zeamais (Motschulsky)]
Test compounds were diluted in a 50:50 acetone:water solution. Four corn seeds [Zea mays (L.)] which had been immersed in test solutions for 2-3 seconds and allowed to dry were placed in containers together with 10 adult weevils. The containers were covered and kept at a temperature of about 25° C. Mortality was recorded after 48 hours. Test concentrations ranged from 0.01% down to that at which 50% mortalilty occurred. The LC50 values are expressed below in Table 3 under the heading "MW" in terms of percent of the test compound in solution.

Assay [4] deals with Tobacco Budworm [Heliothis virescens (Fabricius)] eggs. Nature of the assay: Tobacco budworm egg test (TBW-E). The settings on record: percent in solution.

`Cc1cccc(N=C(OCc2ccc(F)c(Oc3ccc(Cl)cc3)c2)C(C)C)c1` [Compound 401]: in assay [1], the “LC50 CL” value is recorded as 0.0017%. Also, the “LC50 HF” value in assay [2] was less than 100 µg. Moreover, the “LC50 MW” value in assay [3] is reported as more than 0.01%. For the same compound, the “LC50 TBW E” value in assay [4] is on record as 0.04%.

On to `Cc1ccc(N=C(OCc2cccc(Oc3ccc(F)cc3)c2)C(C)C)cc1Cl` [Compound 402], for which, in assay [1], the “LC50 CL” value is reported as more than 0.1%. In addition, in assay [2], the “LC50 HF” value is less than 100 µg. Moreover, the “LC50 MW” value in assay [3] is reported as more than 0.01%. Besides, in assay [4], the “LC50 TBW E” value was more than 0.1%.

With `Cc1ccc(N=C(OCc2cccc(Oc3ccc(Cl)cc3)c2)C(C)C)cc1Cl` [Compound 403], the “LC50 CL” value in assay [1] is given as more than 0.1%. The “LC50 HF” value in assay [2] was less than 100 µg. Moreover, the “LC50 MW” value in assay [3] was more than 0.01%. Moreover, the “LC50 TBW E” value in assay [4] is on record as more than 0.1%.

For the compound `Cc1ccc(N=C(OCc2ccc(F)c(Oc3ccc(Cl)cc3)c2)C(C)C)cc1Cl` [Compound 404], the “LC50 CL” value in assay [1] was more than 0.1%. In addition, in assay [2], the “LC50 HF” value was less than 100 µg. Besides, in assay [3], the “LC50 MW” value was more than 0.01%. In addition, in assay [4], the “LC50 TBW E” value is 0.025%.

On to `Cc1cccc(N=C(OCc2cccc(Oc3ccc(F)cc3)c2)C(C)C)c1` [Compound 405], for which the “LC50 CL” value in assay [1] is reported as more than 0.1%. Also, in assay [2], the “LC50 HF” value was less than 100 µg. Moreover, the “LC50 MW” value in assay [3] was more than 0.01%. Also, the “LC50 TBW E” value in assay [4] is reported as more than 0.1%.

Take `Cc1ccc(N=C(OCc2ccc(F)c(Oc3ccc(Cl)cc3)c2)C(C)C)cc1C` [Compound 406]: the “LC50 CL” value in assay [1] is reported as more than 0.1%. Also, the “LC50 HF” value in assay [2] was less than 100 µg. In addition, the “LC50 MW” value in assay [3] is reported as more than 0.01%. The “LC50 TBW E” value in assay [4] is less than 0.1%.

Regarding `Cc1cc(N=C(OCc2ccc(F)c(Oc3ccc(Cl)cc3)c2)C(C)C)ccc1Br` [Compound 407], the “LC50 CL” value in assay [1] is more than 0.1%. Moreover, the “LC50 HF” value in assay [2] is more than 100 µg. In addition, the “LC50 MW” value in assay [3] is listed as more than 0.01%. In addition, in assay [4], the “LC50 TBW E” value turned out to be 0.05%.

As for `COc1ccc(N=C(OCc2ccc(F)c(Oc3ccc(F)cc3)c2)C(C)C)cc1Cl` [Compound 408], the “LC50 CL” value in assay [1] came out at 0.0015%. For the same compound, the “LC50 HF” value in assay [2] is less than 100 µg. Moreover, the “LC50 MW” value in assay [3] is listed as more than 0.01%. Moreover, the “LC50 TBW E” value in assay [4] is on record as 0.02%.

`COc1ccc(N=C(OCc2ccc(F)c(Oc3ccccc3)c2)C(C)C)cc1Cl` [Compound 409]: the “LC50 CL” value in assay [1] turned out to be 0.0017%. In addition, the “LC50 HF” value in assay [2] was less than 100 µg. For the same compound, the “LC50 MW” value in assay [3] is given as more than 0.01%. Besides, the “LC50 TBW E” value in assay [4] stood at 0.025%.

On to `COc1ccc(N=C(OCc2ccc(F)c(Oc3ccc(Cl)cc3)c2)C(C)C)cc1Cl` [Compound 410], for which the “LC50 CL” value in assay [1] is more than 0.1%. The “LC50 HF” value in assay [2] is less than 100 µg. Further, the “LC50 MW” value in assay [3] is reported as more than 0.01%. In assay [4], the “LC50 TBW E” value is more than 0.1%.

As to `CCc1ccccc1N=C(OCc1cccc(Oc2ccc(F)cc2)c1)C(C)C` [Compound 411], in assay [1], the “LC50 CL” value is given as more than 0.1%. For the same compound, the “LC50 HF” value in assay [2] is less than 100 µg. Also, in assay [3], the “LC50 MW” value is listed as more than 0.01%. In addition, the “LC50 TBW E” value in assay [4] was more than 0.1%.

As to `COc1ccc(N=C(OCc2ccc(F)c(Oc3ccc(Cl)cc3)c2)C(C)C)cc1` [Compound 412], the “LC50 CL” value in assay [1] is listed as more than 0.1%. For the same compound, the “LC50 HF” value in assay [2] is less than 100 µg. Further, the “LC50 MW” value in assay [3] is reported as more than 0.01%. For the same compound, the “LC50 TBW E” value in assay [4] is recorded as more than 0.1%.

For `CC(C)C(=Nc1ccc(F)c(I)c1)OCc1cccc(Oc2ccc(Cl)cc2)c1` [Compound 413], the “LC50 CL” value in assay [1] amounted to 0.0007%. The “LC50 HF” value in assay [2] was less than 100 µg. The “LC50 MW” value in assay [3] is listed as more than 0.01%. Besides, the “LC50 TBW E” value in assay [4] is reported as 0.04%.

On to `CC(C)C(=Nc1ccc(S(C)(=O)=O)cc1)OCc1ccc(F)c(Oc2ccc(F)cc2)c1` [Compound 414], for which, in assay [1], the “LC50 CL” value worked out at 0.0024%. In addition, the “LC50 HF” value in assay [2] was less than 100 µg. The “LC50 MW” value in assay [3] is more than 0.01%. The “LC50 TBW E” value in assay [4] is more than 0.1%.

With `C=C(C)C(=Nc1ccc(F)c(Cl)c1)OCc1ccc(F)c(Oc2ccc(Cl)cc2)c1` [Compound 415], in assay [1], the “LC50 CL” value was determined as 0.00075%. In addition, the “LC50 HF” value in assay [2] is less than 100 µg. The “LC50 MW” value in assay [3] is on record as more than 0.01%. Also, the “LC50 TBW E” value in assay [4] stood at 0.035%.

Turning to `C=C(C)C(=Nc1ccc(F)c(Cl)c1)OCc1ccc(F)c(Oc2ccccc2)c1` [Compound 416], the “LC50 CL” value in assay [1] was 0.00027%. The “LC50 HF” value in assay [2] was less than 100 µg. Besides, the “LC50 MW” value in assay [3] was more than 0.01%. Further, in assay [4], the “LC50 TBW E” value was 0.018%.

Regarding `C=C(C)C(=Nc1ccc(F)c(Cl)c1)OCc1cccc(Oc2ccccc2)c1` [Compound 417], the “LC50 CL” value in assay [1] is 0.0008%. Further, the “LC50 HF” value in assay [2] was less than 100 µg. For the same compound, in assay [3], the “LC50 MW” value is given as less than 0.01%. Moreover, in assay [4], the “LC50 TBW E” value is 0.04%.

For `CC(C)C(=Nc1ccc(OC(F)(F)C(F)Cl)cc1)OCc1cccc(Oc2ccccc2)c1` (centres unmarked) [Compound 418], the “LC50 CL” value in assay [1] is reported as more than 0.1%. Also, in assay [2], the “LC50 HF” value was more than 100 µg. For the same compound, the “LC50 MW” value in assay [3] is more than 0.01%. In addition, the “LC50 TBW E” value in assay [4] is reported as more than 0.1%.

Turning to `CC(C)C(=Nc1ccc(OC(F)(F)C(F)Cl)cc1)OCc1ccc(F)c(Oc2ccccc2)c1` (centres unmarked) [Compound 419], the “LC50 CL” value in assay [1] is given as more than 0.1%. In assay [2], the “LC50 HF” value is more than 100 µg. In addition, the “LC50 MW” value in assay [3] is more than 0.01%. Also, the “LC50 TBW E” value in assay [4] is given as more than 0.1%.

On to `CC(C)C(=Nc1ccc(OCC(F)(F)F)c(Cl)c1)OCc1cccc(Oc2ccc(F)cc2)c1` [Compound 420], for which, in assay [1], the “LC50 CL” value is given as 0.00075%. The “LC50 HF” value in assay [2] is more than 100 µg. Besides, in assay [3], the “LC50 MW” value is more than 0.01%. Moreover, the “LC50 TBW E” value in assay [4] came out at 0.05%.

Turning to `CC(C)C(=Nc1ccc(OCC(F)(F)F)c(Cl)c1)OCc1cccc(Oc2ccc(Cl)cc2)c1` [Compound 421], the “LC50 CL” value in assay [1] is given as 0.002%. For the same compound, the “LC50 HF” value in assay [2] is more than 100 µg. In addition, the “LC50 MW” value in assay [3] is more than 0.01%. Moreover, the “LC50 TBW E” value in assay [4] was less than 0.1%.

As for `CC(C)C(=Nc1ccc(OCC(F)(F)F)cc1)OCc1ccc(F)c(Oc2ccccc2)c1` [Compound 422], the “LC50 CL” value in assay [1] amounted to 0.00075%. Moreover, the “LC50 HF” value in assay [2] is less than 100 µg. The “LC50 MW” value in assay [3] is recorded as more than 0.01%. In addition, the “LC50 TBW E” value in assay [4] is 0.05%.

Regarding `CC(C)C(=Nc1ccc(OCC(F)(F)F)cc1)OCc1cccc(Oc2ccccc2)c1` [Compound 423], in assay [1], the “LC50 CL” value is given as 0.002%. The “LC50 HF” value in assay [2] was more than 100 µg. Further, the “LC50 MW” value in assay [3] is given as more than 0.01%. In addition, the “LC50 TBW E” value in assay [4] is recorded as more than 0.1%.

On to `CC(C)C(=Nc1ccc(OCC(F)(F)F)c(Cl)c1)OCc1ccc(F)c(Oc2ccccc2)c1` [Compound 424], for which the “LC50 CL” value in assay [1] is 0.00038%. Moreover, the “LC50 HF” value in assay [2] was more than 100 µg. Also, the “LC50 MW” value in assay [3] was more than 0.01%. In addition, in assay [4], the “LC50 TBW E” value came out at 0.035%.

For the compound `CC(C)C(=Nc1ccc(OCC(F)(F)F)c(Cl)c1)OCc1cccc(Oc2ccccc2)c1` [Compound 425], the “LC50 CL” value in assay [1] was determined as 0.00075%. The “LC50 HF” value in assay [2] was more than 100 µg. Further, the “LC50 MW” value in assay [3] is given as more than 0.01%. Besides, the “LC50 TBW E” value in assay [4] is on record as more than 0.1%.

For the compound `CCOc1cccc(N=C(OCc2ccc(F)c(Oc3ccc(F)cc3)c2)C(C)C)c1` [Compound 426], the “LC50 CL” value in assay [1] is 0.002%. The “LC50 HF” value in assay [2] was more than 100 µg. Moreover, in assay [3], the “LC50 MW” value is more than 0.01%. In addition, in assay [4], the “LC50 TBW E” value is more than 0.1%.
